Experimental data published in ChEMBL document CHEMBL3045679, “Microwave-assisted synthesis and pharmacological studies of novel 5-deazaalloxazine derivatives” (2012).
In brackets after ≈: the same amount, converted by molar mass. Activity calls are given as the source filed them. No cut-off for these calls is given here.

Experiments:
Candida albicans [1] = assay: Antifungal activity against Candida albicans NCIM 3471 at 500 ug/disk after 72 hr by disk diffusion method; type: functional
Aspergillus flavus [2] = assay: Antifungal activity against Aspergillus flavus NCIM 535 at 1000 ug/disk after 72 hr by disk diffusion method; type: functional; settings: NCIM 535, 72 h, read-out: DIZ
Lipomyces lipofer [3] = assay: Antifungal activity against Lipomyces lipofer NCIM 3252 at 1000 ug/disk after 72 hr by disk diffusion method; type: functional
Klebsiella aerogenes [4] = assay: Antibacterial activity against Enterobacter aerogenes NCIM 2239 after 24 hr by broth dilution assay; type: functional; settings: NCIM 2239, 24 h
Bacillus cereus [5] = assay: Antibacterial activity against Bacillus cereus NCIM 2155 after 24 hr by broth dilution assay; type: functional; settings: NCIM 2155, 24 h
Aspergillus niger [6] = assay: Antifungal activity against Aspergillus niger NCIM 1196 after 72 hr by broth dilution assay; type: functional; settings: NCIM 1196, 72 h
Escherichia coli [7] = assay: Antibacterial activity against Escherichia coli NCIM 2065 at 1000 ug/disk after 24 hr by disk diffusion method; type: functional; settings: NCIM 2065, 24 h, read-out: DIZ
Bacillus subtilis [8] = assay: Antibacterial activity against Bacillus subtilis NCIM 2063 at 1000 ug/disk after 24 hr by disk diffusion method; type: functional; settings: NCIM 2063, 24 h, read-out: DIZ
Escherichia coli [9] = assay: Antibacterial activity against Escherichia coli NCIM 2065 after 24 hr by broth dilution assay; type: functional; settings: NCIM 2065, 24 h
Bacillus subtilis [10] = assay: Antibacterial activity against Bacillus subtilis NCIM 2063 at 500 ug/disk after 24 hr by disk diffusion method; type: functional
Lipomyces lipofer [11] = assay: Antifungal activity against Lipomyces lipofer NCIM 3252 at 500 ug/disk after 72 hr by disk diffusion method; type: functional
Bacillus cereus [12] = assay: Antibacterial activity against Bacillus cereus NCIM 2155 at 500 ug/disk after 24 hr by disk diffusion method; type: functional
Streptomyces albus [13] = assay: Antibacterial activity against Streptomyces albus NCIM 2178 at 500 ug/disk after 24 hr by disk diffusion method; type: functional, organism-based
Candida albicans [14] = assay: Antifungal activity against Candida albicans NCIM 3471 at 1000 ug/disk after 72 hr by disk diffusion method; type: functional
Aspergillus niger [15] = assay: Antifungal activity against Aspergillus niger NCIM 1196 at 500 ug/disk after 72 hr by disk diffusion method; type: functional
Streptomyces albus [16] = assay: Antibacterial activity against Streptomyces albus NCIM 2178 after 24 hr by broth dilution assay; type: functional; settings: NCIM 2178, 24 h
Pseudomonas aeruginosa [17] = assay: Antibacterial activity against Pseudomonas aeruginosa NCIM 2200 after 24 hr by broth dilution assay; type: functional; settings: NCIM 2200, 24 h
Escherichia coli [18] = assay: Antibacterial activity against Escherichia coli NCIM 2065 at 500 ug/disk after 24 hr by disk diffusion method; type: functional; settings: for zone of inhibition at 500 µg/disc: NCIM 2065, 24 h, read-out: DIZ
Klebsiella aerogenes [19] = assay: Antibacterial activity against Enterobacter aerogenes NCIM 2239 at 500 ug/disk after 24 hr by disk diffusion method; type: functional
Pseudomonas aeruginosa [20] = assay: Antibacterial activity against Pseudomonas aeruginosa NCIM 2200 at 500 ug/disk after 24 hr by disk diffusion method; type: functional
Bacillus cereus [21] = assay: Antibacterial activity against Bacillus cereus NCIM 2155 at 1000 ug/disk after 24 hr by disk diffusion method; type: functional; settings: NCIM 2155, 24 h, read-out: DIZ
Lipomyces lipofer [22] = assay: Antifungal activity against Lipomyces lipofer NCIM 3252 after 72 hr by broth dilution assay; type: functional; settings: NCIM 3252, 72 h
Aspergillus flavus [23] = assay: Antifungal activity against Aspergillus flavus NCIM 535 at 500 ug/disk after 72 hr by disk diffusion method; type: functional
Bacillus subtilis [24] = assay: Antibacterial activity against Bacillus subtilis NCIM 2063 after 24 hr by broth dilution assay; type: functional; settings: NCIM 2063, 24 h
Pseudomonas aeruginosa [25] = assay: Antibacterial activity against Pseudomonas aeruginosa NCIM 2200 at 1000 ug/disk after 24 hr by disk diffusion method; type: functional; settings: NCIM 2200, 24 h, read-out: DIZ
Aspergillus niger [26] = assay: Antifungal activity against Aspergillus niger NCIM 1196 at 1000 ug/disk after 72 hr by disk diffusion method; type: functional; settings: NCIM 1196, 72 h, read-out: DIZ
Penicillium chrysogenum [27] = assay: Antifungal activity against Penicillium chrysogenum NCIM 707 at 500 ug/disk after 72 hr by disk diffusion method; type: functional
Penicillium chrysogenum [28] = assay: Antifungal activity against Penicillium chrysogenum NCIM 707 at 1000 ug/disk after 72 hr by disk diffusion method; type: functional; settings: for zone of inhibition at 1000 µg/disc: NCIM 707, 72 h, read-out: DIZ
Klebsiella aerogenes [29] = assay: Antibacterial activity against Enterobacter aerogenes NCIM 2239 at 1000 ug/disk after 24 hr by disk diffusion method; type: functional; settings: NCIM 2239, 24 h, read-out: DIZ
Rhodotorula mucilaginosa [30] = assay: Antifungal activity against Rhodotorula mucilaginosa NCIM 3174 at 1000 ug/disk after 72 hr by disk diffusion method; type: functional
Rhodotorula mucilaginosa [31] = assay: Antifungal activity against Rhodotorula mucilaginosa NCIM 3174 at 500 ug/disk after 72 hr by disk diffusion method; type: functional
Streptomyces albus [32] = assay: Antibacterial activity against Streptomyces albus NCIM 2178 at 1000 ug/disk after 24 hr by disk diffusion method; type: functional
Candida albicans [33] = assay: Antifungal activity against Candida albicans NCIM 3471 after 72 hr by broth dilution assay; type: functional; settings: NCIM 3471, 72 h
Rhodotorula mucilaginosa [34] = assay: Antifungal activity against Rhodotorula mucilaginosa NCIM 3174 after 72 hr by broth dilution assay; type: functional; settings: NCIM 3174, 72 h

| SMILES | diameter of the inhibition zone (DIZ) (Candida albicans [1]) | zone of inhibition at 1000 µg/disc (Aspergillus flavus [2]) | MIC (Klebsiella aerogenes [4]) | MIC (Bacillus cereus [5]) | MIC (Aspergillus niger [6]) | zone of inhibition at 1000 µg/disc (Escherichia coli [7]) | zone of inhibition at 1000 µg/disc (Bacillus subtilis [8]) | MIC (Escherichia coli [9]) | diameter of the inhibition zone (DIZ) (Bacillus cereus [12]) | diameter of the inhibition zone (DIZ) (Streptomyces albus [13]) | diameter of the inhibition zone (DIZ) (Candida albicans [14]) | MIC (Pseudomonas aeruginosa [17]) | diameter of the inhibition zone (DIZ) (Klebsiella aerogenes [19]) | zone of inhibition at 1000 µg/disc (Bacillus cereus [21]) | diameter of the inhibition zone (DIZ) (Aspergillus flavus [23]) | MIC (Bacillus subtilis [24]) | zone of inhibition at 1000 µg/disc (Pseudomonas aeruginosa [25]) | zone of inhibition at 1000 µg/disc (Aspergillus niger [26]) | diameter of the inhibition zone (DIZ) (Penicillium chrysogenum [27]) | zone of inhibition at 1000 µg/disc (Klebsiella aerogenes [29]) | other results |
| --- | --- | --- | --- | --- | --- | --- | --- | --- | --- | --- | --- | --- | --- | --- | --- | --- | --- | --- | --- | --- | --- |
| Cc1cccc2cc3c(=O)[nH]c(=S)[nH]c3nc12 | inactive | 10 mm | 15.6 µg/mL (≈ 64.1 µM) | 31.2 µg/mL (≈ 128 µM) | 3.9 µg/mL (≈ 16 µM) | 11 mm | 12 mm | 31.2 µg/mL (≈ 128 µM) | inactive | inactive | inactive | 6.5 µg/mL (≈ 26.7 µM) | inactive | 13 mm | inactive | 31.2 µg/mL (≈ 128 µM) | 12 mm | 16 mm | inactive | 10 mm | zone of inhibition at 1000 µg/disc (Lipomyces lipofer [3]; NCIM 3252, 72 h, read-out: DIZ): 10 mm; zone of inhibition at 500 µg/disc (Bacillus subtilis [10]; NCIM 2063, 24 h, read-out: DIZ): 9 mm; zone of inhibition at 500 µg/disc (Lipomyces lipofer [11]; NCIM 3252, 72 h, read-out: DIZ): 8 mm; zone of inhibition at 500 µg/disc (Aspergillus niger [15]; NCIM 1196, 72 h, read-out: DIZ): 12 mm; MIC (Streptomyces albus [16]): 125 µg/mL (≈ 514 µM); zone of inhibition at 500 µg/disc (Escherichia coli [18]): 8 mm; diameter of the inhibition zone (DIZ) (Pseudomonas aeruginosa [20]): inactive; MIC (Lipomyces lipofer [22]): 125 µg/mL (≈ 514 µM); zone of inhibition at 1000 µg/disc (Penicillium chrysogenum [28]): 9 mm; diameter of the inhibition zone (DIZ) (Rhodotorula mucilaginosa [30]): inactive; diameter of the inhibition zone (DIZ) (Rhodotorula mucilaginosa [31]): inactive; zone of inhibition at 1000 µg/disc (Streptomyces albus [32]; NCIM 2178, 24 h, read-out: DIZ): 12 mm |
| COc1cccc2cc3c(=O)[nH]c(=O)[nH]c3nc12 | inactive | 8 mm | 62.5 µg/mL (≈ 257 µM) | 31.5 µg/mL (≈ 130 µM) | 125 µg/mL (≈ 514 µM) | 12 mm | 10 mm | 7.8 µg/mL (≈ 32.1 µM) | inactive | inactive |  | 62.5 µg/mL (≈ 257 µM) | inactive | 12 mm | inactive | 62.5 µg/mL (≈ 257 µM) | 10 mm | 11 mm | inactive | 8 mm | diameter of the inhibition zone (DIZ) (Lipomyces lipofer [3]): inactive; MIC (Candida albicans [33]): 125 µg/mL (≈ 514 µM); MIC (Rhodotorula mucilaginosa [34]): 31.2 µg/mL (≈ 128 µM); diameter of the inhibition zone (DIZ) (Bacillus subtilis [10]): inactive; diameter of the inhibition zone (DIZ) (Lipomyces lipofer [11]): inactive; zone of inhibition at 1000 µg/disc (Candida albicans [14]; NCIM 3471, 72 h, read-out: DIZ): 12 mm; diameter of the inhibition zone (DIZ) (Aspergillus niger [15]): inactive; diameter of the inhibition zone (DIZ) (Escherichia coli [18]): inactive; diameter of the inhibition zone (DIZ) (Pseudomonas aeruginosa [20]): inactive; zone of inhibition at 1000 µg/disc (Penicillium chrysogenum [28]): 8 mm; zone of inhibition at 1000 µg/disc (Rhodotorula mucilaginosa [30]; NCIM 3174, 72 h, read-out: DIZ): 10 mm; zone of inhibition at 500 µg/disc (Rhodotorula mucilaginosa [31]; NCIM 3174, 72 h, read-out: DIZ): 8 mm; diameter of the inhibition zone (DIZ) (Streptomyces albus [32]): inactive |
| O=c1[nH]c(=O)c2cc3cc(Br)ccc3nc2[nH]1 | inactive | 11 mm | 62.5 µg/mL (≈ 214 µM) | 62.5 µg/mL (≈ 214 µM) | 62.5 µg/mL (≈ 214 µM) | 11 mm | 12 mm | 7.8 µg/mL (≈ 26.7 µM) |  | inactive | inactive | 31.2 µg/mL (≈ 107 µM) | inactive | 11 mm | inactive | 31.2 µg/mL (≈ 107 µM) | 12 mm | 12 mm | inactive | 10 mm | diameter of the inhibition zone (DIZ) (Lipomyces lipofer [3]): inactive; diameter of the inhibition zone (DIZ) (Bacillus subtilis [10]): inactive; diameter of the inhibition zone (DIZ) (Lipomyces lipofer [11]): inactive; zone of inhibition at 500 µg/disc (Bacillus cereus [12]; NCIM 2155, 24 h, read-out: DIZ): 8 mm; diameter of the inhibition zone (DIZ) (Aspergillus niger [15]): inactive; zone of inhibition at 500 µg/disc (Escherichia coli [18]): 7 mm; zone of inhibition at 500 µg/disc (Pseudomonas aeruginosa [20]; NCIM 2200, 24 h, read-out: DIZ): 9 mm; diameter of the inhibition zone (DIZ) (Penicillium chrysogenum [28]): inactive; diameter of the inhibition zone (DIZ) (Rhodotorula mucilaginosa [30]): inactive; diameter of the inhibition zone (DIZ) (Rhodotorula mucilaginosa [31]): inactive; diameter of the inhibition zone (DIZ) (Streptomyces albus [32]): inactive |
